Structures can show the parent of a compound that is named as a salt. Where two headings read alike, the source gives them in different places.
Assays:
NLRP3 inflammasome = experiment: IL-1β secretion assay (LPS-primed, nigericin-activated THP-1 cells, MSD readout); format: cell-based; details: read-out: IL1b IC50
Description: Monocytic THP-1 cells (DSMZ) were maintained in RPMI media (RPMI 1640 Medium (1×) +10% FBS, Eurobio CVFSVFOO—OU). Cells were then plated at 16,000 cells per well in 96-well round bottom cell culture plates (TPP, ref 92097) and maintained with RPMI and 0.1% Bovine Serum Albumin solution. Activation of the NLRP3 inflammasome requires both an NF-kB-dependent priming step and the addition of a NLRP3 activator. The priming step was induced by LPS (10 ng/mL, Sigma, ref:L4391) for 3 h at 37° C., then compound, in a 1:3.10 serial dilution series in DMSO 1:100, and the activator nigericin (Sigma Aldrich, ref: SML1779) 10 μM (final concentration) were added to the cells and co-incubated for 2 h. 50 μL supernatant was removed, and IL-1β levels were monitored using an MSD assay (Electro Chemical Luminescence Immunoassay (ECLI) according to manufacturers' instructions.
(§1) IC50 values were calculated from the plot of percentage of inhibition versus the inhibitor concentration by a logistics fit according to: y=A2+(A1−A2)/(1+(x/IC50)^p) where y is the %-inhibition at the inhibitor concentration, x. A1 is the lowest inhibition value, i.e., 0%, and A2 the maximum inhibition value, i.e., 100%. The exponent, p, is the Hill coefficient. The curve fitting was conducted with an internally developed software.

TNF-α secretion = TNF-α secretion assay (PMA-differentiated THP-1 cells, LPS-triggered, MSD readout); format: cell-based; details: LPS 24 h; for inhibition at 3 µM / inhibition at 10 µM: Homo sapiens
Description: Monocytic THP-1 cells (DSMZ) were maintained in RPMI media (RPMI 1640 Medium (1×) +10% FBS, biowest S181H). Cells were then differentiated at 160,000 cells per well in 96-well flat bottom cell culture plates with RPMI+0.1% Bovine Serum Albumin solution and 0.5 μM phorbol 12-myristate 13-acetate (PMA; Sigma, ref:P8139) overnight at 37° C. Experimental compounds were prepared and added as described above. TNF-α secretion was triggered by the addition of 0.5 μg/mL LPS (invivoGen, tlrl-3pelps) and cells were incubated for 24 h. 2.5 μL supernatant was removed, and TNF-α levels were monitored using an MSD assay (mesoscale, K15049) according to manufacturers' instructions.
as §1

[1] = Homo sapiens, THP-1, LPS-primed

SMILES	IC50 (NLRP3 inflammasome; [1]) [nM]	IC50 (NLRP3 inflammasome; LPS-primed) [nM]	inhibition at 3 µM (TNF-α secretion; compound at 3 μM) [%]	inhibition at 10 µM (TNF-α secretion; compound at 10 μM) [%]	TNF-a inhibition @ 3 μM (TNF-α secretion; compound at 3 μM)	TNF-a inhibition @ 10 μM (TNF-α secretion; compound at 10 μM)	IC50 (NLRP3 inflammasome; Homo sapiens, LPS-primed) [nM]
CC(C)c1nn(CC(=O)Nc2cncs2)c(=O)c2cc3ccsc3n12 [Example 2, 2-(8-isopropyl-5-oxothieno[3′,2′:4,5]pyrrolo[1,2-d][1,2,4]triazin-6(5H)-yl)-N-(thiazol-5-yl) acetamide]		577			3.3	−51.5	
CC(C)c1nn(CC(=O)N[C@@H]2CCCN(C)C2)c(=O)c2cc3cc(Cl)sc3n12 [Example 5, (R)-2-(2-chloro-8-isopropyl-5-oxothieno[3′,2′:4,5]pyrrolo[1,2-d][1,2,4]triazin-6(5H)-yl)-N-(1-methylpiperidin-3-yl)acetamide 2,2,2-trifluoroacetate]	1230		-18.2	-14.1			
CC(C)c1nn(CC(=O)N[C@@H]2CCCN(C)C2)c(=O)c2cc3cc(Br)sc3n12 [Example 8, (R)-2-(2-bromo-8-isopropyl-5-oxothieno[3′,2′:4,5]pyrrolo[1,2-d][1,2,4]triazin-6(5H)-yl)-N-(1-methylpiperidin-3-yl)acetamide]	801		-10	-21.8			
O=C(Cn1nc(C2CC2)n2c(cc3cc(Cl)sc32)c1=O)N[C@@H]1CCCN(C2CC2)C1 [Example 13, (R)-2-(2-chloro-8-cyclopropyl-5-oxothieno[3′,2′:4,5]pyrrolo[1,2-d][1,2,4]triazin-6(5H)-yl)-N-(1-cyclopropylpiperidin-3-yl)acetamide]	168		5.2	22.2			
C=O.CC(C)c1nn(CC(=O)N[C@@H]2CCCN(CCO)C2)c(=O)c2cc3ccsc3n12 [Example 19, (R)—N-(1-(2-hydroxyethyl)piperidin-3-yl)-2-(8-isopropyl-5-oxothieno [3′,2′:4,5]pyrrolo[1,2-d][1,2,4]triazin-6(5H)-yl)acetamide compound with formaldehyde]			27.7	-22.7			225
O=C(Cn1nc(C2CC2)n2c(cc3ccsc32)c1=O)N[C@@H]1CCCN(C2CCC2)C1 [Example 20, (R)—N-(1-cyclobutylpiperidin-3-yl)-2-(8-cyclopropyl-5-oxothieno[3′,2′:4,5]pyrrolo[1,2-d][1,2,4]triazin-6(5H)-yl)acetamide]	185		-6.1	-26			
O=C(Cn1nc(C2CC2)n2c(cc3ccsc32)c1=O)N[C@@H]1CCCN(C2CC2)C1 [Example 21, (R)-2-(8-cyclopropyl-5-oxothieno[3′,2′:4,5]pyrrolo[1,2-d][1,2,4]triazin-6(5H)-yl)-N-(1-cyclopropylpiperidin-3-yl)acetamide]	60		11.7	13.5			
CN1CCC[C@@H](NC(=O)Cn2nc(C3CC3)n3c(cc4ccsc43)c2=O)C1 [Example 24, (R)-2-(8-cyclopropyl-5-oxothieno[3′,2′:4,5]pyrrolo[1,2-d][1,2,4]triazin-6(5H)-yl)-N-(1-methylpiperidin-3-yl)acetamide formate]	2890		12	15.5			
CC(C)c1nn(CC(=O)N[C@@H]2CCCN(C3CCC3)C2)c(=O)c2cc3cc(Br)sc3n12 [Example 31, (R)-2-(2-bromo-8-isopropyl-5-oxothieno[3′,2′:4,5]pyrrolo[1,2-d][1,2,4]triazin-6(5H)-yl)-N-(1-cyclobutylpiperidin-3-yl)acetamide 2,2,2-trifluoroacetate]	30		10.5	32.5			
CC(C)c1nn(CC(=O)NC2CN(C)CC(F)(F)C2)c(=O)c2cc3ccsc3n12 (stereo not drawn) [Example 35, N-(5,5-difluoro-1-methylpiperidin-3-yl)-2-(8-isopropyl-5-oxothieno[3′,2′:4,5]pyrrolo[1,2-d][1,2,4]triazin-6(5H)-yl)acetamide]			23	5.7			
CC(C)c1nn(CC(=O)Nc2cncnc2)c(=O)c2cc3ccsc3n12 [Example 84, 2-(8-isopropyl-5-oxothieno[3′,2′:4,5]pyrrolo[1,2-d][1,2,4]triazin-6(5H)-yl)-N-pyrimidin-5-ylacetamide]	5950						
CC(C)c1nn(CC(=O)NC2C[C@@H]3CN[C@H]2C3)c(=O)c2cc3ccsc3n12 (stereo partly drawn) [Example 88, N-[(1S,4R)-2-azabicyclo[2.2.1]heptan-6-yl]-2-(12-isopropyl-9-oxo-3-thia-1,10,11-triazatricyclo[6.4.0.02,6]dodeca-2(6),4,7,11-tetraen-10-yl)acetamidehydrochloride]	> 10000						

Continued, in another order:

IC50 (NLRP3 inflammasome; [1]) [nM]	IC50 (NLRP3 inflammasome; LPS-primed) [nM]	SMILES	inhibition at 3 µM (TNF-α secretion; compound at 3 μM) [%]	inhibition at 10 µM (TNF-α secretion; compound at 10 μM) [%]	TNF-a inhibition @ 3 μM (TNF-α secretion; compound at 3 μM)	TNF-a inhibition @ 10 μM (TNF-α secretion; compound at 10 μM)	IC50 (NLRP3 inflammasome; Homo sapiens, LPS-primed) [nM]
661		CC(C)c1nn(CC(=O)N[C@@H]2CCCN(C)C2)c(=O)c2cc3ccsc3n12 [Example 1, (R)-2-(8-isopropyl-5-oxothieno[3′,2′:4,5]pyrrolo[1,2-d][1,2,4]triazin-6(5H)-yl)-N-(1-methylpiperidin-3-yl)acetamide]	-5.1	-17.7			
335		CC(C)c1nn(CC(=O)N[C@@H]2CCCN(C[C@H](C)O)C2)c(=O)c2cc3ccsc3n12 [Example 3, N—((R)-1-((S)-2-hydroxypropyl)piperidin-3-yl)-2-(8-isopropyl-5-oxothieno[3′,2′:4,5]pyrrolo[1,2-d][1,2,4]triazin-6(5H)-yl)acetamide]	3.1	-8.2			
54		CC(C)c1nn(CC(=O)N[C@@H]2CCCN(C3CC3)C2)c(=O)c2cc3ccsc3n12 [Example 4, (R)—N-(1-cyclopropylpiperidin-3-yl)-2-(8-isopropyl-5-oxothieno[3′,2′:4,5]pyrrolo[1,2-d][1,2,4]triazin-6(5H)-yl)acetamide]	21.5	7.5			
237		CC(C)CN1CCC[C@@H](NC(=O)Cn2nc(C(C)C)n3c(cc4ccsc43)c2=O)C1 [Example 14, (R)—N-(1-isobutylpiperidin-3-yl)-2-(8-isopropyl-5-oxothieno[3′,2′:4,5]pyrrolo[1,2-d][1,2,4]triazin-6(5H)-yl)acetamide]	-0.5	-18.8			
300		CC(C)c1nn(CC(=O)N[C@@H]2CCCN(CC3CCCC3)C2)c(=O)c2cc3ccsc3n12 [Example 17, (R)—N-(1-(cyclopentylmethyl)piperidin-3-yl)-2-(8-isopropyl-5-oxothieno[3′,2′:4,5]pyrrolo [1,2-d][1,2,4]triazin-6(5H)-yl)acetamide]	11.2	31.4			
400		C[C@H](O)CN1CCC[C@@H](NC(=O)Cn2nc(C3CC3)n3c(cc4ccsc43)c2=O)C1 [Example 22, 2-(8-cyclopropyl-5-oxothieno[3′,2′:4,5]pyrrolo[1,2-d][1,2,4]triazin-6(5H)-yl)-N—((R)-1-((S)-2-hydroxypropyl)piperidin-3-yl)acetamide]	-2.9	14.5			
311		CC(C)c1nn(CC(=O)N[C@@H]2CCCN(CC(C)(C)O)C2)c(=O)c2cc3ccsc3n12 [Example 23, (R)—N-(1-(2-hydroxy-2-methylpropyl)piperidin-3-yl)-2-(8-isopropyl-5-oxothieno[3′,2′:4,5]pyrrolo[1,2-d][1,2,4]triazin-6(5H)-yl)acetamide formate]	1.8	3.3			
775		CC(C)c1nn(CC(=O)N[C@@H]2CCCN(CC3CC3)C2)c(=O)c2cc3ccsc3n12 [Example 28, (R)—N-(1-(cyclopropylmethyl)piperidin-3-yl)-2-(8-isopropyl-5-oxothieno[3′,2′:4,5]pyrrolo [1,2-d][1,2,4]triazin-6(5H)-yl)acetamide formate]	34.4	-45.5			
> 10000		CC(C)c1nn(CC(=O)NC2CCNC(=O)C2)c(=O)c2cc3ccsc3n12 (stereo not drawn) [Example 85, 2-(12-isopropyl-9-oxo-3-thia-1,10,11-triazatricyclo[6.4.0.02,6]dodeca-2(6),4,7,11-tetraen-10-yl)-N-(2-oxo-4-piperidyl)acetamide]					
> 10000		CC(C)c1nn(CC(=O)NC2CCN(C3CC3)C2)c(=O)c2cc3ccsc3n12 (stereo not drawn) [Example 86, N-(1-cyclopropylpyrrolidin-3-yl)-2-(12-isopropyl-9-oxo-3-thia-1,10,11-triazatricyclo [6.4.0.02,6]dodeca-2(6),4,7,11-tetraen-10-yl)acetamide]					
